The NIST ThermoML archive (doi:10.1016/j.jct.2006.02.001)
Values joined by “and” are separate entries in the source; they are usually repeats but may differ in a detail not shown here. Equal values may be shown once.

How the values were obtained:
[1] = 101 kPa, Liquid
[2] = refractive index (Na D-line) (dimensionless); settings: 101.33 kPa, Liquid
[3] = refractive index (Na D-line) (dimensionless); xn = mol fraction of the nth substance listed; settings: 101 kPa, Liquid
[4] = xn = mol fraction of the nth substance listed; settings: 101 kPa, Liquid

Cc1ccc(C)cc1 [1,4-dimethylbenzene]
Settings | mass density, 288.15 K [kg/m3] | mass density, 293.15 K [kg/m3] | mass density, 298.15 K [kg/m3] | mass density, 303.15 K [kg/m3] | refractive index, 288.15 K | refractive index, 293.15 K | refractive index, 298.15 K | refractive index, 303.15 K
[1] | 865.25 | 860.92 | 856.62 | 852.25 | – | – | – | –
[2] | – | – | – | – | 1.4983 | 1.4958 | 1.4929 | 1.4915

c1ccccc1 [benzene]
Settings | mass density, 288.15 K [kg/m3] | mass density, 293.15 K [kg/m3] | mass density, 298.15 K [kg/m3] | mass density, 303.15 K [kg/m3] | refractive index, 288.15 K | refractive index, 293.15 K | refractive index, 298.15 K | refractive index, 303.15 K
[1] | 884.11 | 876.53 | 873.6 | 868.23 | – | – | – | –
[2] | – | – | – | – | 1.505 | 1.5011 | 1.4979 | 1.4849

COc1ccccc1 [anisole]
Settings | mass density, 288.15 K [kg/m3] | mass density, 293.15 K [kg/m3] | mass density, 298.15 K [kg/m3] | mass density, 303.15 K [kg/m3] | refractive index, 288.15 K | refractive index, 293.15 K | refractive index, 298.15 K | refractive index, 303.15 K
[1] | 998.44 | 993.65 | 989.15 | 984.37 | – | – | – | –
[2] | – | – | – | – | 1.5256 | 1.5172 and 1.5169 | 1.5141 | 1.5117

Cc1ccccc1 [toluene]
Settings | mass density, 288.15 K [kg/m3] | mass density, 293.15 K [kg/m3] | mass density, 298.15 K [kg/m3] | mass density, 303.15 K [kg/m3] | refractive index, 288.15 K | refractive index, 293.15 K | refractive index, 298.15 K | refractive index, 303.15 K
[1] | 871.41 | 866.87 | 862.2 | 857.46 | – | – | – | –
[2] | – | – | – | – | 1.4996 | 1.497 | 1.4944 | 1.4918

COc1ccccc1 [anisole] + c1ccccc1
Settings | mass density, 288.15 K [kg/m3] | mass density, 293.15 K [kg/m3] | mass density, 298.15 K [kg/m3] | mass density, 303.15 K [kg/m3] | refractive index, 288.15 K | refractive index, 293.15 K | refractive index, 298.15 K | refractive index, 303.15 K
[3], x1 = 0.105 | – | – | – | – | 1.5076 | 1.5032 | 1.5001 | 1.4884
[3], x1 = 0.201 | – | – | – | – | 1.51 | 1.5051 | 1.5019 | 1.4914
[3], x1 = 0.3173 | – | – | – | – | 1.5127 | 1.5072 | 1.5041 | 1.4949
[3], x1 = 0.4192 | – | – | – | – | 1.5149 | 1.509 | 1.5058 | 1.4978
[3], x1 = 0.5126 | – | – | – | – | 1.5168 | 1.5105 | 1.5074 | 1.5003
[3], x1 = 0.6139 | – | – | – | – | 1.5188 | 1.5121 | 1.5089 | 1.5029
[3], x1 = 0.7067 | – | – | – | – | 1.5206 | 1.5134 | 1.5103 | 1.5052
[3], x1 = 0.797 | – | – | – | – | 1.5222 | 1.5147 | 1.5115 | 1.5073
[3], x1 = 0.9002 | – | – | – | – | 1.524 | 1.516 | 1.5129 | 1.5096
[3], x1 = 1 | – | – | – | – | 1.5256 | 1.5172 | 1.5141 | 1.5117
[4], x1 = 0.105 | 898.53 | 891.31 | 888.2 | 882.91 | – | – | – | –
[4], x1 = 0.201 | 911.14 | 904.23 | 900.97 | 895.75 | – | – | – | –
[4], x1 = 0.3173 | 925.73 | 919.17 | 915.76 | 910.6 | – | – | – | –
[4], x1 = 0.4192 | 937.94 | 931.66 | 928.1 | 923 | – | – | – | –
[4], x1 = 0.5126 | 948.66 | 942.64 | 938.93 | 933.89 | – | – | – | –
[4], x1 = 0.6139 | 959.83 | 954.08 | 950.21 | 945.24 | – | – | – | –
[4], x1 = 0.7067 | 969.67 | 964.17 | 960.12 | 955.22 | – | – | – | –
[4], x1 = 0.797 | 978.88 | 973.61 | 969.41 | 964.57 | – | – | – | –
[4], x1 = 0.9002 | 989.01 | 983.99 | 979.62 | 974.85 | – | – | – | –
[4], x1 = 1 | 998.44 | 993.65 | 989.15 | 984.37 | – | – | – | –

Cc1ccc(C)cc1 [1,4-dimethylbenzene] + COc1ccccc1
x2 = 0
Settings | mass density, 288.15 K [kg/m3] | mass density, 293.15 K [kg/m3] | mass density, 298.15 K [kg/m3] | mass density, 303.15 K [kg/m3] | refractive index, 288.15 K | refractive index, 293.15 K | refractive index, 298.15 K | refractive index, 303.15 K
[3] | – | – | – | – | 1.4983 | 1.4958 | 1.4929 | 1.4915
[4] | 865.25 | 860.92 | 856.62 | 852.25 | – | – | – | –

Cc1ccccc1C [1,2-dimethylbenzene]
Settings | mass density, 288.15 K [kg/m3] | mass density, 293.15 K [kg/m3] | mass density, 298.15 K [kg/m3] | mass density, 303.15 K [kg/m3] | refractive index, 288.15 K | refractive index, 293.15 K | refractive index, 298.15 K | refractive index, 303.15 K
[1] | 883.29 | 879.08 | 875.53 | 870.73 | – | – | – | –
[2] | – | – | – | – | 1.5072 | 1.5047 | 1.5018 | 1.5

Cc1cc(C)cc(C)c1 [1,3,5-trimethylbenzene]
Settings | mass density, 288.15 K [kg/m3] | mass density, 293.15 K [kg/m3] | mass density, 298.15 K [kg/m3] | mass density, 303.15 K [kg/m3] | refractive index, 288.15 K | refractive index, 293.15 K | refractive index, 298.15 K | refractive index, 303.15 K
[1] | 869.17 | 865.07 | 861.06 | 856.95 | – | – | – | –
[2] | – | – | – | – | 1.5045 | 1.4993 | 1.4976 | 1.4948

Cc1cccc(C)c1 [1,3-dimethylbenzene]
Settings | mass density, 288.15 K [kg/m3] | mass density, 293.15 K [kg/m3] | mass density, 298.15 K [kg/m3] | mass density, 303.15 K [kg/m3] | refractive index, 288.15 K | refractive index, 293.15 K | refractive index, 298.15 K | refractive index, 303.15 K
[1] | 868.32 | 864.05 | 859.77 | 855.47 | – | – | – | –
[2] | – | – | – | – | 1.4997 | 1.4973 | 1.4944 | 1.4925

Cc1ccccc1 [toluene] + COc1ccccc1
x2 = 0
Settings | mass density, 288.15 K [kg/m3] | mass density, 293.15 K [kg/m3] | mass density, 298.15 K [kg/m3] | mass density, 303.15 K [kg/m3] | refractive index, 288.15 K | refractive index, 293.15 K | refractive index, 298.15 K | refractive index, 303.15 K
[3] | – | – | – | – | 1.4996 | 1.497 | 1.4944 | 1.4918
[4] | 871.41 | 866.87 | 862.2 | 857.46 | – | – | – | –
